Experimental data taken from US7303876B2 (Applera Corporation, priority 2000, dated 2007).

Experiments:
[1] = test system: Liver tissue; assay: Liver tissue disaggregation by 1% surfactant with or without Proteinase K at 60° C.; details: 60° C., 1% surfactant
Description: To evaluate the ability of various cationic surfactants to increase the digestion of tissue by Proteinase K, liver slices were digested using reaction compositions including one of the sixteen surfactants (shown in Table 4), both with and without Proteinase K. The reducing agent dithiothreitol (DTT) was included to evaluate the effect of reducing conditions on tissue digestion. […] One of the sixteen surfactants was added to one pair of tubes to yield a final concentration of 1% surfactant. The seventeenth pair of tubes served as non-surfactant controls. One milligram (mg) of Proteinase K was added to one tube of each of the seventeen pairs.
PK=presence or absence of Proteinase K in the reaction composition; Y=Proteinase K was present; N=Proteinase K was not present in the reaction composition.

[2] = Solubility of 1% cationic surfactants in 5M chaotropic salt solutions containing 2% Tween 20; details: 5M chaotropic salts, 2% Tween 20
Text: The solubilities of several cationic surfactants were examined in different chaotropic salt solutions. The cationic surfactants examined were cetyltrimethylammonium bromide (CTAB), cetyltrimethylammonium chloride (CTACl), tetradecyltrimethylammonium bromide (TTAB), tetradecyltrimethylammonium chloride (TTACl), dodecyltrimethylammonium bromide (DTAB), dodecyltrimethylammonium (DTACl), dodecylethyidimethylammonium bromide (DEDTAB), decyltrimethylammonium bromide (D10TAB), and dodecyltriphenylphosphonium bromide (DTPB). Each of the cationic surfactants tested was presented in a 1% concentration. Each of the cationic surfactants was examined in a 5M solution of one of the chaotropic salts containing 2% Tween 20. Each cationic surfactant and salt combination was tested at pH 6 (50 mM MES), pH 8 (50 mM Tris-HCl), and pH 10 (50 mM AMP).

[3] = test system: Calf thymus DNA; assay: Effect of DTAB on DNA recovery when added before, during, and after DNA binding to GF/B; details: pretreatment with 5M salt with 1% DTAB (D+) versus without (D−)
Description: The inhibitory effect of the cationic surfactant, DTAB, was further examined. DTAB was introduced at various points of the purification reaction, before DNA binding, during binding, or after DNA binding has occurred on the solid phase. DNA binding and purification procedures were carried out using GF/B glass fiber filters (in a 96-well format) on the ABI PRISM 6100.
In set A, the GF/B membrane was pretreated with 100 μl of liquid lacking (A−) or containing (A+) 1% DTAB. Calf thymus DNA (8 μg) was then bound in 800 μL of 50 mM MES, pH 6.0, 20 mM EDTA, and 5 M salt (either NaBr or GUSCN).
In set B, the membranes were not prewashed. Calf thymus DNA (8 μg) was bound to GF/B glass fiber filters in 800 μl of 50 mM MES, pH, 6.0, 20 mM EDTA, and 5 M salt (either NaBr or GuSCN). Following binding, the membranes were washed in 50 mM MES, pH 6.0, 20 mM EDTA and 5 M salt (either NaBr or GuSCN) either lacking (B−) or containing (B+) 1% DTAB.
In set C, the membranes were not prewashed. Calf thymus DNA (8 μg) was bound to GF/B glass fiber filters in 800 μl of 50 mM MES, pH 6.0, 20 mM EDTA, and 5 M salt (either NaBr or GUSCN) either lacking (C−) or containing (C+) 1% DTAB.
In set D, the GF/B membrane was pretreated with 100 μl of 5 M salt (either NaBr or GuSCN) lacking (A−) or containing (A+) 1% DTAB. […]

[4] = Solubility of surfactants (0.5% Sarkosyl, LDS, SDS, CTAB; 5.0% others) in salt solutions
Description: In certain instances, the solubility of detergents in high salt may relate to on the composition of the salt and the detergent itself. A mixing experiment was performed to examine the solubility of a variety of anionic, cationic, and nonionic surfactants in different salt compositions. […] The salt solutions contained Lil, Nal, KI, Rbl, Csl , GuSCN, GuHCl, or NaClO4, at pH 6.0 or 10.0. […] The solubility of the surfactants was scored as either soluble or insoluble. The solubility of the surfactant in the salt solution was determined initially by visual observations for cloudiness or precipitate formation. The resulting solutions were also centrifuged to verify the absence of a precipitate by the absence of a precipitate pellet.

[5] = test system: Calf thymus genomic DNA; assay: Reversal by Tween 20 of DTAB inhibition of DNA recovery from GF/B
Description: Having identified the cationic surfactant as a major component inhibiting DNA recovery, the ability of a nonionic surfactant to reverse the inhibitory effect was examined. Calf thymus genomic DNA (8 μg) was bound to the glass fiber GF/B membrane in the presence of 0%, 1% and 4% dodecyltrimethylammonium bromide (DTAB) with increasing concentrations of Tween 20.
The binding buffer also contained 5M GuSCN, 20 mM EDTA, and 50 mM MES (pH 6.0). DNA was first eluted with 200 μl of TE followed by a separate elution with 100 μl of 0.1N NaOH. All binding and elution steps were done at ambient temperature.

[6] = test system: cationic surfactant: nucleic acid precipitate; assay: Solubilizing the cationic surfactant: nucleic acid precipitate (calf thymus DNA + 1% CTAB); details: Calf thymus DNA 700 μg/ml, 100 mM Tris, pH 8, additive at final concentration
Description: Calf thymus DNA (Sigma; 700 μg/ml lightly sheared using an 18 gauge hypodermic needle) was mixed with 1% CTAB in 100 mM Tris, pH 8 to form a reaction composition.

Molecule	Tissue Disaggregation ([1]; Fifteen Minutes Incubation, Proteinase K not present (N))	Tissue Disaggregation ([1]; Fifteen Minutes Incubation, Proteinase K present (Y))	Tissue Disaggregation ([1]; Fifty-Two Minutes Incubation, Proteinase K not present (N))	Tissue Disaggregation ([1]; Fifty-Two Minutes Incubation, Proteinase K present (Y))	relative solubility in chaotropic salt solutions (in words) [2]	subsequent binding of nucleic acid to GF/B [3]	Solubility of surfactant ([4]; 4 M GuHCl, Urea, pH 6.0)	Solubility of surfactant ([4]; 4 M GuHCl, Urea, pH 10.0)	Solubility of surfactant ([4]; 4 M KI, Urea, pH 6.0)	Solubility of surfactant ([4]; 4 M KI, Urea, pH 10.0)	Solubility of surfactant ([4]; 6 M GuHCl, pH 6.0)	Solubility of surfactant ([4]; 6 M GuHCl, pH 10.0)	Solubility of surfactant ([4]; 6 M NaI, pH 10.0)	concentration at which the amount of DNA recovered increased significantly ([5]; 0% DTAB, FIG. 21)	concentration that substantially blocked the inhibitory effect of the cationic surfactant ([5]; 1% DTAB, FIG. 22)	concentration that substantially blocked the inhibitory effect of the cationic surfactant ([5]; 4% DTAB, FIG. 23)	Result (solubilization of the CTAB: nucleic acid precipitate) [6]
CCCCCCCCCCCC[N+](C)(C)C.[Br-] [DTAB, dodecyltrimethylammonium bromide]	0	2	0	3	more soluble than larger surfactants	did not appear to influence subsequent binding of nucleic acid											
polyoxyethylenesorbitan monolaurate [Tween 20]							S	S	S	S	S	S	S	at least 1%	at least 2%	at least 4%	neither NaCl nor Tween 20, used alone, solubilized the precipitate
